The source of these data is patent US9403702B1, “Commodity water purifier” (A BETTER LIFE WORLDWIDE, LLC, priority 2015, dated 2016).

Read-outs that look alike come from different tables or passages of the source. A value given as a limit tells only on which side of the number the result lay.

For series [1] the following is noted: water, cited from earlier work.
Series [2] deals with gram-positive and gram-negative bacteria. The following applies: typical; cited from earlier work.
For series [3] the following is noted: bound to proteins on skin, mucosa, mouth tissue and teeth; cited from earlier work.
In series [4] the test system is gram-positive and gram-negative bacteria. The settings on record: in vitro; cited from earlier work.
Another series can be described thus: Solubility in water. In kind it is physicochemical. The settings on record: inventors' finding for CXC. An excerpt:
Although the biological properties of CX are valuable its engineering properties are somewhat challenging. […] However CX is crystalline, and becomes impermeable when formed into a filter. The impermeability renders the filter properties moot. And even if the filter properties remained intact, the presence of CX in effluent would raise the standard for registration with the EPA and for management of the effluent.
In an effort to resolve that problem, U.S. Pat. No. 7,427,409 discloses use of a hydrate, i.e., CX having 1.3 water molecules per chlorhexidine molecules, and the composition is an amorphous material from which a permeable filter can be manufactured. […] The present invention contemplates use of CXH for any value of n for waters of hydration. However the inventors have discovered an unexpected disadvantage of CXH, namely that a small amount of CXH is eroded from the amorphous solid when fluid passes over or through it and thus exits with the effluent. Any water purifier that allows such emissions must be registered with the EPA as a pesticide, as opposed to a purifier, moreover the maker and/or marketer of the filter would be responsible for the ultimate fate and effects of the CXH after it leaves the filter. Moreover CXH decomposes when heated, and the water of hydration evaporates at 96° C. […]

Consider `[H]/N=C(\N/C(=N/[H])NCCCCCCNC(=N)NC(=N)Nc1ccc(Cl)cc1)Nc1ccc(Cl)cc1` [CX, N,N″″1,6-Hexanediylbis[N′-(4-chlorophenyl)(imidodicarbonimidic diamide)]], for which, in series [1], the solubility result was “practically insoluble”. Moreover, in series [2], the “time of uptake of CX into the cells” value is ≤ 20 s. Further, in series [3], the persistence of activity is ≥ 48 h. Besides, the “time to kill virtually all gram-positive and gram-negative bacteria” value in series [4] was ≤ 30 s.

With `[H]/N=C(\N/C(=N/[H])NCCCCCCNC(=N)NC(=N)Nc1ccc(Cl)cc1)Nc1ccc(Cl)cc1` [CXH, chlorhexidine hydrate], the solubility result in series [1] (hydrate) is given as “essentially insoluble”.

On to chlorhexidine citrate [CXC], for which, in the series “Solubility in water”, the solubility entry is “low solubility”.
